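1) Cells in 96-well plates. 2) Compound, 48 h, 5 concentrations. 3) Linear interpolation between surrounding doses. 4) Unreached endpoint = highest concentration. The concentration for 50% growth inhibition is given as GI50. TGI denotes the concentration required for complete inhibition of growth.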 Where a SMILES comes first, the peptide text is derived from it. [ ]: non-standard residue; d: D form. The star is where a group is joined. Decanoyl = CCCCCCCCCC(=O)*; Leu(ol) = CC(C)C[C@H](N)CO; Iva = CC[C@](C)(N)C(=O)O; Aib = CC(C)(N)C(=O)O
Assays:
Assay in all cases: inhibition of tumour cell growth, NCI panel, 48 h
[1] = system: 786-0 renal
[2] = system: A498 renal
[3] = system: A549 NSCLC
[4] = system: ACHN renal
[5] = system: BT-549 breast
[6] = system: CAKI-1 renal
[7] = system: CCRF-CEM leukemia
[8] = system: COLO 205 colon
[9] = system: DU-145 prostate
[10] = system: EKVX NSCLC
[11] = system: HCC-2998 colon
[12] = system: HCT-116 colon
[13] = system: HCT-15 colon
[14] = system: HL-60(TB) leukemia
[15] = system: HOP-62 NSCLC
[16] = system: HOP-92 NSCLC
[17] = system: HS 578T breast
[18] = system: HT29 colon
[19] = system: IGROV1 ovarian
[20] = system: K-562 leukemia
[21] = system: KM12 colon
[22] = system: LOX IMVI melanoma
[23] = system: M14 melanoma
[24] = system: MALME-3M melanoma
[25] = system: MCF7 breast
[26] = system: MDA-MB-231 breast
[27] = system: MDA-MB-435
[28] = system: MOLT-4 leukemia
[29] = system: NCI-H226 lung
[30] = system: NCI-H460 lung
[31] = system: NCI-H522 lung
[32] = system: NCI/ADR-RES ovarian
[33] = system: OVCAR-3 ovarian
[34] = system: OVCAR-4 ovarian
[35] = system: OVCAR-5 ovarian
[36] = system: OVCAR-8 ovarian
[37] = system: PC-3 prostate
[38] = system: RPMI-8226 leukemia
[39] = system: RXF 393 renal
[40] = system: SF-268 CNS
[41] = system: SF-295 CNS
[42] = system: SF-539 CNS
[43] = system: SK-MEL-2 melanoma
[44] = system: SK-MEL-28 melanoma
[45] = system: SK-MEL-5 melanoma
[46] = system: SK-OV-3 ovarian
[47] = system: SN12C renal
[48] = system: SNB-19 CNS
[49] = system: SNB-75 CNS
[50] = system: SR leukemia
[51] = system: SW-620 colon
[52] = system: T-47D breast
[53] = system: TK-10 renal
[54] = system: UACC-257 melanoma
[55] = system: UACC-62 melanoma
[56] = system: UO-31 renal

## CCCCCCCCCC(=O)N[C@@](C)(CC)C(=O)N1CCC[C@H]1C(=O)N[C@@H](CC(C)C)C(=O)N[C@@](C)(CC)C(=O)N[C@@H](CCC(N)=O)C(=O)N[C@H](CCC(N)=O)C(=O)NC(C)(C)C(=O)NC(C)(C)C(=O)N[C@@H](CCC(N)=O)C(=O)N[C@H](CC(C)C)C(=O)N[C@H](CO)CC(C)C (Decanoyl-[Iva]PL[Iva]Q[dQ][Aib][Aib]Q[dL][Leu(ol)])
[1]
  GI50: 2.48 µM
  TGI: 6.48 µM
[2]
  GI50: 2.75 µM
  TGI: 7.36 µM
[3]
  GI50: 4.93 µM
  TGI: 27 µM
[4]
  GI50: 8.34 µM
  TGI: 20.8 µM
[5]
  GI50: 2.08 µM
  TGI: 4.11 µM
[6]
  GI50: 6.6 µM
  TGI: 20.8 µM
[7]
  GI50: 2.01 µM
  TGI: 4.49 µM
[8]
  GI50: 1.91 µM
  TGI: 3.8 µM
[9]
  GI50: 1.96 µM
  TGI: 3.67 µM
[10]
  GI50: 2.2 µM
  TGI: 5.47 µM
[11]
  GI50: 2.15 µM
  TGI: 4.58 µM
[12]
  GI50: 3.3 µM
  TGI: 12.1 µM
[13]
  GI50: 7.72 µM
  TGI: 22.5 µM
[14]
  GI50: 2.23 µM
  TGI: 6.26 µM
[15]
  GI50: 2.25 µM
  TGI: 5.04 µM
[16]
  GI50: 1.34 µM
  TGI: 4.6 µM
[17]
  GI50: 2.1 µM
  TGI: 5.5 µM
[18]
  GI50: 3.48 µM
  TGI: 14.8 µM
[19]
  GI50: 4.05 µM
  TGI: 14.8 µM
[20]
  GI50: 2.09 µM
  TGI: 4.37 µM
[21]
  GI50: 2.03 µM
  TGI: 4.37 µM
[22]
  GI50: 1.97 µM
  TGI: 4.26 µM
[23]
  GI50: 1.93 µM
  TGI: 3.95 µM
[24]
  GI50: 2.12 µM
  TGI: 4.95 µM
[25]
  GI50: 2.04 µM
  TGI: 4.38 µM
[26]
  GI50: 2.04 µM
  TGI: 4.71 µM
[27]
  GI50: 1.86 µM
  TGI: 3.6 µM
[28]
  GI50: 2.09 µM
  TGI: 4.43 µM
[29]
  GI50: 2.21 µM
  TGI: 5.2 µM
[30]
  GI50: 3.53 µM
  TGI: 11.8 µM
[31]
  GI50: 2.06 µM
  TGI: 5.13 µM
[32]
  GI50: 5.59 µM
  TGI: 19.6 µM
[33]
  GI50: 7.61 µM
  TGI: 22.2 µM
[34]
  GI50: 12.7 µM
  TGI: 28.5 µM
[35]
  GI50: 3.38 µM
  TGI: 12.4 µM
[36]
  GI50: 1.91 µM
  TGI: 4.17 µM
[37]
  GI50: 1.79 µM
  TGI: 3.51 µM
[38]
  GI50: 2.33 µM
  TGI: 5.06 µM
[39]
  GI50: 1.81 µM
  TGI: 3.63 µM
[40]
  GI50: 2.5 µM
  TGI: 6.52 µM
[41]
  GI50: 1.76 µM
  TGI: 3.42 µM
[42]
  GI50: 1.98 µM
  TGI: 4.21 µM
[43]
  GI50: 2.76 µM
  TGI: 8.36 µM
[44]
  GI50: 1.77 µM
  TGI: 3.3 µM
[45]
  GI50: 1.88 µM
  TGI: 3.56 µM
[46]
  GI50: 5.03 µM
  TGI: 18.9 µM
[47]
  GI50: 2.29 µM
  TGI: 6.15 µM
[48]
  GI50: 2.08 µM
  TGI: 4.66 µM
[49]
  GI50: 1.6 µM
  TGI: 4.15 µM
[50]
  GI50: 1.94 µM
  TGI: 4.32 µM
[51]
  GI50: 4.05 µM
  TGI: 15.2 µM
[52]
  GI50: 3.56 µM
  TGI: 17.8 µM
[53]
  GI50: 4.09 µM
  TGI: 16.7 µM
[54]
  GI50: 1.75 µM
  TGI: 3.46 µM
[55]
  GI50: 1.99 µM
  TGI: 4.91 µM
[56]
  GI50: 3.58 µM
  TGI: 16.1 µM

— PubChem BioAssay (NCI)
